Target: T1, human NaV1.6 (hNaV1.6) (Homo sapiens, UniProt Q9UQD0)
T1 construct: expressed in transfected cells; host or cells: HEK-293 (G418 selection)
Assay: Modulation of late sodium current (INaL), PatchXpress electrophysiology
Type: cell-based
Settings: HEK293, read-out: INaL v1.6 (1 µM, % Inhibition)
Protocol: Functional characterization of exemplary compounds to modulate INaL expressed by the NaV1.6 voltage-gated sodium channel was accomplished using the PatchXpressTM high throughput electrophysiology platform (Molecular Devices, Sunnyvale, CA). HEK-293 cells expressing recombinant, human NaV1.6 (hNaV1.6)were grown in DMEM/high-glucose Dulbecco's modified, 10% FBS, 2 mM sodium pyruvate, 10 mM HEPES and 400 μg/mL G418. Cells were grown to 50% - 80% confluency prior to harvesting. Trypsinized cells were washed, allowed to recover for 1 hour and then resuspended in extracellular recording solution at a concentration of 1 × 10^6 cells/ml. The onboard liquid handling facility of the PatchXpress was used for dispensing cells and applying test compounds. Nav late currents were evoked by the application of 300 nM ATX-II. […] INaL amplitude and stability were determined by analyzing the mean current amplitude over the final 20 ms of […] pulse. […] Percent steady-state inhibition of INaL was calculated as: [([…])]*100, where INaL_compound and INaL _control represent INaL recorded in the presence or absence of compound, respectively.

T1 sequence (Q9UQD0 whole entry): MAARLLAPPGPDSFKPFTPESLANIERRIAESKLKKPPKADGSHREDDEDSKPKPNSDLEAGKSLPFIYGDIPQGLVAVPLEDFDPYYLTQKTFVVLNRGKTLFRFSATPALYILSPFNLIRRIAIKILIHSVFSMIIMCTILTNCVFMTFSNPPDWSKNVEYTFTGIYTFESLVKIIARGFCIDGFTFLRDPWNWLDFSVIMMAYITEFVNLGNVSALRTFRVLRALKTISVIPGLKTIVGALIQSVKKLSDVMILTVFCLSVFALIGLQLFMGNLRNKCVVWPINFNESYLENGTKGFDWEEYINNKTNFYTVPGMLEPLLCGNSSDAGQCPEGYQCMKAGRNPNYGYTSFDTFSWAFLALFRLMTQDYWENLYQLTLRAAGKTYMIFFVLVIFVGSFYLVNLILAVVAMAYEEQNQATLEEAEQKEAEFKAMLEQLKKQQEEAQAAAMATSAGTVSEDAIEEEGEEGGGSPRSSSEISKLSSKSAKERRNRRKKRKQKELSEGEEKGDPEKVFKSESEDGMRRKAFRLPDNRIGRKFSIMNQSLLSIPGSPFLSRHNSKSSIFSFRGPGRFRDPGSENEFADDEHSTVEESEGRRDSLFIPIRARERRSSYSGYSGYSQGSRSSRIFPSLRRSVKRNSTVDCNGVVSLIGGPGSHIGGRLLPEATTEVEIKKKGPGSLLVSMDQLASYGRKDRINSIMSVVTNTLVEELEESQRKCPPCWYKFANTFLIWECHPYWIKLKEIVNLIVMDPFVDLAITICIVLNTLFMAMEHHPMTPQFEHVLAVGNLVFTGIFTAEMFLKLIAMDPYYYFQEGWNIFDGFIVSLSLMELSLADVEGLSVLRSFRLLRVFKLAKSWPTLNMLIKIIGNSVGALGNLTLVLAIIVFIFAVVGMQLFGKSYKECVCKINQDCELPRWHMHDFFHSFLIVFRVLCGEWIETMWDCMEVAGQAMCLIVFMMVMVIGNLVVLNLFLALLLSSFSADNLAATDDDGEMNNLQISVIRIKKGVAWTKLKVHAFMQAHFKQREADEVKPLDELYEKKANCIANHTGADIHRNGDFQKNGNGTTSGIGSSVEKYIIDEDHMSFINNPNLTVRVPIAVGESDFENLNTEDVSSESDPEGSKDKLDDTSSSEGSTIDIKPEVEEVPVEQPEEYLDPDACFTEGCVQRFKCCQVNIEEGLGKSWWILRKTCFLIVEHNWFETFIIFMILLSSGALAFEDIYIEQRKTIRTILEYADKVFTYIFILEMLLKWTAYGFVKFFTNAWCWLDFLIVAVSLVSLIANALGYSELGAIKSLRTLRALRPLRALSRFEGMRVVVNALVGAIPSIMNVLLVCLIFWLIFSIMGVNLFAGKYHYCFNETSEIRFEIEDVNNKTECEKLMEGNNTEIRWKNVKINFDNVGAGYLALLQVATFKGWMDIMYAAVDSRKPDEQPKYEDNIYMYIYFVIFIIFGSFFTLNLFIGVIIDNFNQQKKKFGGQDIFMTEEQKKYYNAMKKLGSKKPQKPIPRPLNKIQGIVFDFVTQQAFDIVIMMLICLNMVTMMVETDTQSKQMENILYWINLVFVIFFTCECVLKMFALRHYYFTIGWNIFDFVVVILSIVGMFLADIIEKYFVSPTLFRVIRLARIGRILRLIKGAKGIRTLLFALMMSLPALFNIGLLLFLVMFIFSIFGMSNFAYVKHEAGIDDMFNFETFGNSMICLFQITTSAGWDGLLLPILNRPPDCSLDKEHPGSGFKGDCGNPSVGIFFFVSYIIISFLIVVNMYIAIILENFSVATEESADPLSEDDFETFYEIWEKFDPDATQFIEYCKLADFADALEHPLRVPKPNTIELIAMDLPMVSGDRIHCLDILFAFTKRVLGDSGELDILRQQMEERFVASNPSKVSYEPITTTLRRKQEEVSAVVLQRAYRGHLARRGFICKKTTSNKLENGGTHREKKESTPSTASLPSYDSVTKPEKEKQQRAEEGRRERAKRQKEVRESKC

Structure (SMILES) | inhibition at 1 µM [%]
Fc1cc(-c2cn3c(C(F)(F)F)ncc3cn2)cnc1OCC(F)(F)F [Compound 23, 6-[5-fluoro-6-(2,2,2-trifluoroethoxy)-3-pyridyl]-3-(trifluoromethyl)imidazo[1,5-a]pyrazine] | 30 to 70
N#Cc1nc(C(F)(F)F)n2cc(-c3ccc(C4(C#N)CC4)cc3)ccc12 [Compound 20] | < 30
N#Cc1nc(C(F)(F)F)n2cc(-c3ccc(OCC(F)(F)F)nc3)ccc12 [Compound 19] | > 70
FC(F)(F)c1ccc(-c2cnc3cnc(C(F)(F)F)n3c2)cc1 [Compound 18] | < 30
COCc1cc(OC(F)(F)F)ccc1-c1cnc2cnc(C(F)(F)F)n2c1 [Compound 12] | 30 to 70
FC1(F)CC(c2ncc3ncc(-c4ccc(OC(F)(F)F)cc4)cn23)C1 [Compound 24] | < 30
N#Cc1nc(C(F)F)n2cc(-c3ccc(OC(F)(F)F)cc3)ccc12 [Compound 21] | 30 to 70

Same assay, conditions: HEK293; 1 µM compound; HEK-293 cells expressing hNaV1.6; late current evoked by 300 nM ATX-II; read-out: INaL v1.6 (1 µM, % Inhibition)

inhibition at 1 µM [%] | Structure (SMILES)
> 70 | N#Cc1nc(C(F)(F)F)n2cc(-c3ccc(C(F)(F)F)cc3)ncc12 [Compound 29]
30 to 70 | N#CC1(c2ccc(-c3cn4c(C(F)(F)F)ncc4cn3)cc2)CC1 [Compound 22]
30 to 70 | FC(F)(F)Oc1ccc(-c2cnc3cnc(C(F)(F)F)n3c2)cc1 [Compound 8]
< 30 | N#Cc1nc(C(F)(F)F)n2nc(-c3ccc(OC(F)(F)F)cc3)ccc12 [Compound 25]
< 30 | COc1cc(C2(C#N)CC2)ccc1-c1cnc2cnc(C(F)(F)F)n2c1 [Compound 17]
< 30 | N#Cc1nc(C(F)(F)F)n2cc(-c3ccc(OC(F)(F)F)cc3)cnc12 [Compound 11]
> 70 | COCc1cc(OC(F)(F)F)ccc1-c1cn2c(C(F)(F)F)nc(C#N)c2cn1 [Compound 28]
30 to 70 | FC(F)(F)Oc1ccc(-c2ccc3cnc(C4CC4(F)F)n3c2)cc1 (stereo not shown) [Compound 26]
> 70 | COCc1cc(OC(F)(F)F)ccc1-c1cn2c(C(F)(F)F)ncc2cn1 [Compound 15]
30 to 70 | Fc1cc(-c2cnc3cnc(C(F)(F)F)n3c2)cnc1OCC(F)(F)F [Compound 32, 3-[5-fluoro-6-(2,2,2-trifluoroethoxy)-3-pyridyl]-6-(trifluoromethyl)imidazo[1,5-a]pyrimidine]
30 to 70 | COC(C)(C)c1ccc(-c2ccc3cnc(C(F)(F)F)n3c2)cc1 [Compound 3]
< 30 | N#CC1(c2ccc(-c3cnc4cnc(C(F)(F)F)n4c3)cc2)CC1 [Compound 13]
30 to 70 | FC(F)(F)Oc1ccc(-c2cn3c(C(F)(F)F)ncc3cn2)cc1 [Compound 7]
30 to 70 | FC(F)(F)Oc1ccc(-c2ccc3cnc(C(F)(F)F)n3n2)cc1 [Compound 9]
> 70 | COc1cc(OC(F)(F)F)ccc1-c1ccc2cnc(C(F)(F)F)n2c1 [Compound 1]
> 70 | N#Cc1nc(C(F)(F)F)n2cc(-c3cnc(OCC(F)(F)F)c(F)c3)ccc12 [Compound 33, 6-[5-fluoro-6-(2,2,2-trifluoroethoxy)-3-pyridyl]-3-(trifluoromethyl)imidazo[1,5-a]pyridine-1-carbonitrile]
> 70 | N#Cc1nc(C(F)(F)F)n2cc(-c3ccc(OC(F)(F)F)cc3)ncc12 [Compound 27]
< 30 | FC(F)c1ncc2ncc(-c3ccc(OC(F)(F)F)cc3)cn12 [Compound 10]
30 to 70 | N#Cc1nc(C(F)(F)F)n2cc(-c3cnc(OCC(F)(F)F)c(F)c3)ncc12 [Compound 31, 6-[5-fluoro-6-(2,2,2-trifluoroethoxy)-3-pyridyl]-3-(trifluoromethyl)imidazo[1,5-a]pyrazine-1-carbonitrile]
30 to 70 | N#CC1(c2ccc(-c3ccc4cnc(C(F)(F)F)n4c3)cc2)CC1 [Compound 4]
30 to 70 | Cc1nc(C(F)(F)F)n2cc(-c3ccc(OC(F)(F)F)cc3)cnc12 [Compound 14]
30 to 70 | FC(F)(F)COc1ccc(-c2ccc3cnc(C(F)(F)F)n3c2)cn1 [Compound 2]
> 70 | COCc1cc(OC(F)(F)F)ccc1-c1ccc2c(C#N)nc(C(F)(F)F)n2c1 [Compound 16]
> 70 | N#Cc1nc(C2CC2(F)F)n2cc(-c3ccc(OC(F)(F)F)cc3)ccc12 (stereo not shown) [Compound 30]
